The values that follow come from paper PMC5218480 (PLoS ONE, 2017).

The subject of the test is MV-4-11 cells. In words: Gene expression microarray analysis (Affymetrix PrimeView) and GSEA. Format: cell-based, human. The conditions noted are these: ProbeSet 11717523_x_at; LIST B.

With `Nc1ncn([C@@H]2O[C@H](CO)[C@@H](O)[C@H]2O)c(=O)n1` [azacitidine], the “RFU, TMEM50B” value worked out at 81.58 RFU.
